Numbers after ± are expanded uncertainties.

The conditions of data set [1]: DTA.
Data set [2] is described as follows: Molar enthalpy of transition or fusion. Conditions: DSC.

With `CCCCn1cc[n+](C)c1.F[P-](F)(F)(F)(F)F` [1-butyl-3-methylimidazolium hexafluorophosphate], the Normal melting temperature in data set [1] (Crystal 1) came to 3.28 ± 1 °C. In data set [1] (Glass), the Glass transition temperature is -76.59 ± 0.5 °C. The “Molar enthalpy of transition or fusion” value in data set [2] (Crystal 1) came out at 2.2 ± 0.0789 kcal/mol.

With `CCn1cc[n+](C)c1.F[P-](F)(F)(F)(F)F` [1-ethyl-3-methylimidazolium hexafluorophosphate], the Normal melting temperature in data set [1] (Crystal) came out at 59.7 ± 1 °C. The “Molar enthalpy of transition or fusion” value in data set [2] (Crystal) turned out to be 4.27 ± 0.134 kcal/mol.

(Values after the NIST ThermoML archive (doi:10.1021/je020145g).)
